The target of experiment [1] is biotinylated human Gal-3 (hGal-3) (Homo sapiens, UniProt P17931). Nature of the experiment: Competitive binding assay: biotinylated hGal-3 binding to microplate-adsorbed asialofetuin (ASF), spectrophotometric. The note with it: Gal-3 inhibition, Table 4; read-out: IC50. In outline:
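Competitive binding of biotinylated hGal-3 to plate-adsorbed asialofetuin was measured with serially diluted compounds over 3 h at 4° C. Bound protein was detected with streptavidin-peroxidase and ABTS substrate by absorbance. IC50 values are means of several measurements.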

The target of experiment [2] is human Gal-1 (hGal-1) (Homo sapiens, UniProt P09382). Nature of the experiment: Competitive binding assay: biotinylated hGal-1 binding to microplate-adsorbed asialofetuin (ASF), spectrophotometric. The note with it: hGal-1 binding to asialofetuin; Table 15; R and S epimers of selected Examples also listed; read-out: IC50 (Galectin-1 inhibition). An outline of the steps: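 Biotinylated hGal-1 (300-1000 ng/mL) incubated with compound on asialofetuin-coated plates 3 hours at 4 °C, washed, then streptavidin-peroxidase (80 ng/mL) 1 hour at 4 °C. ABTS substrate read spectrophotometrically; IC50 reported as mean of several measurements.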

Structures are written as SMILES.

What is called IC50 is the point on the concentration scale where inhibition reaches its midpoint.

human Gal-1 (hGal-1), sequence (P09382 whole entry): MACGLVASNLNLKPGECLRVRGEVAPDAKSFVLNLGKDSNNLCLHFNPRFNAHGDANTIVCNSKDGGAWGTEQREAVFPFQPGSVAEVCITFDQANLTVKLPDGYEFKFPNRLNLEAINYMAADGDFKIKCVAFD
biotinylated human Gal-3 (hGal-3), sequence (P17931 whole entry): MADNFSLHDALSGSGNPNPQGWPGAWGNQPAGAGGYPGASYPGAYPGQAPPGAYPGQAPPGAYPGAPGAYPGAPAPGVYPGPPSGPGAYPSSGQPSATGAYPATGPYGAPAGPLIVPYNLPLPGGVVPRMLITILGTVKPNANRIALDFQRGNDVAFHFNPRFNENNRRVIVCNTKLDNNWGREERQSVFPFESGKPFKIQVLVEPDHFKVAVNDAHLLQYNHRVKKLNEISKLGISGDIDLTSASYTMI

`CN(Cc1cccs1)C(=O)C(S[C@@H]1O[C@H](CO)[C@H](O)[C@H](n2cc(-c3cc(F)c(F)c(F)c3)nn2)[C@H]1O)C1(O)CCOCC1` (stereo partly drawn) [Example 2.41.210., 2-(((2S,3R,4S,5R,6R)-3,5-dihydroxy-6-(hydroxymethyl)-4-(4-(3,4,5-trifluorophenyl)-1H-1,2,3-triazol-1-yl)tetrahydro-2H-pyran-2-yl)thio)-2-(4-hydroxytetrahydro-2H-pyran-4-yl)-N-methyl-N-(thiophen-2-ylmethyl)acetamide]: the IC50 in experiment [1] amounted to 0.44 µM; in experiment [2], 1.12 µM.
For `O=C(C(S[C@@H]1O[C@H](CO)[C@H](O)[C@H](n2cc(-c3cc(F)c(F)c(F)c3)nn2)[C@H]1O)C1(O)CCOCC1)N1CCCC1` (stereo partly drawn) [Example 2.41.211., 2-(((2S,3R,4S,5R,6R)-3,5-Dihydroxy-6-(hydroxymethyl)-4-(4-(3,4,5-trifluorophenyl)-1H-1,2,3-triazol-1-yl)tetrahydro-2H-pyran-2-yl)thio)-2-(4-hydroxytetrahydro-2H-pyran-4-yl)-1-(pyrrolidin-1-yl)ethan-1-one], in that order: 0.13 µM and 0.33 µM.
Regarding `CN(CC1CCCC1)C(=O)[C@H](S[C@@H]1O[C@H](CO)[C@H](O)[C@H](n2cc(-c3cc(F)c(F)c(F)c3)nn2)[C@H]1O)C1(O)CCOCC1` [Example 2.41.212., (R)-N-(cyclopentylmethyl)-2-(((2S,3R,4S,5R,6R)-3,5-dihydroxy-6-(hydroxymethyl)-4-(4-(3,4,5-trifluorophenyl)-1H-1,2,3-triazol-1-yl)tetrahydro-2H-pyran-2-yl)thio)-2-(4-hydroxytetrahydro-2H-pyran-4-yl)-N-methylacetamide], the concentration for half-maximal inhibition (IC50) in experiment [1] turned out to be 0.08 µM; in experiment [2], 0.2 µM.
For `CN(CC1CCOCC1)C(=O)C(S[C@@H]1O[C@H](CO)[C@H](O)[C@H](n2cc(-c3cc(F)c(F)c(F)c3)nn2)[C@H]1O)C1(O)CCOCC1` (stereo partly drawn) [Example 2.41.213., 2-(((2S,3R,4S,5R,6R)-3,5-dihydroxy-6-(hydroxymethyl)-4-(4-(3,4,5-trifluorophenyl)-1H-1,2,3-triazol-1-yl)tetrahydro-2H-pyran-2-yl)thio)-2-(4-hydroxytetrahydro-2H-pyran-4-yl)-N-methyl-N-((tetrahydro-2H-pyran-4-yl)methyl)acetamide], the half-maximal inhibitory concentration (IC50) in experiment [1] was 0.08 µM; in experiment [2], 0.2 µM.
Regarding `CCN(CC1CCOCC1)C(=O)C(S[C@@H]1O[C@H](CO)[C@H](O)[C@H](n2cc(-c3cc(F)c(F)c(F)c3)nn2)[C@H]1O)C1(O)CCOCC1` (stereo partly drawn) [Example 2.41.214., 2-(((2S,3R,4S,5R,6R)-3,5-Dihydroxy-6-(hydroxymethyl)-4-(4-(3,4,5-trifluorophenyl)-1H-1,2,3-triazol-1-yl)tetrahydro-2H-pyran-2-yl)thio)-N-ethyl-2-(4-hydroxytetrahydro-2H-pyran-4-yl)-N-((tetrahydro-2H-pyran-4-yl)methyl)acetamide], the 50% inhibitory concentration (IC50) in experiment [1] is 0.03 µM; in experiment [2], 0.12 µM.
For the compound `CN(Cc1cn(C)cn1)C(=O)C(S[C@@H]1O[C@H](CO)[C@H](O)[C@H](n2cc(-c3cc(F)c(F)c(F)c3)nn2)[C@H]1O)C1(O)CCOCC1` (stereo partly drawn) [Example 2.41.215., 2-(((2S,3R,4S,5R,6R)-3,5-Dihydroxy-6-(hydroxymethyl)-4-(4-(3,4,5-trifluorophenyl)-1H-1,2,3-triazol-1-yl)tetrahydro-2H-pyran-2-yl)thio)-2-(4-hydroxytetrahydro-2H-pyran-4-yl)-N-methyl-N-((1-methyl-1H-imidazol-4-yl)methyl)acetamide], the IC50 in experiment [1] stood at 0.06 µM; in experiment [2], 0.37 µM.
On to `CN(CCC1CCOCC1)C(=O)C(S[C@@H]1O[C@H](CO)[C@H](O)[C@H](n2cc(-c3cc(F)c(F)c(F)c3)nn2)[C@H]1O)C1(O)CCOCC1` (stereo partly drawn) [Example 2.41.216., 2-(((2S,3R,4S,5R,6R)-3,5-Dihydroxy-6-(hydroxymethyl)-4-(4-(3,4,5-trifluorophenyl)-1H-1,2,3-triazol-1-yl)tetrahydro-2H-pyran-2-yl)thio)-2-(4-hydroxytetrahydro-2H-pyran-4-yl)-N-methyl-N-(2-(tetrahydro-2H-pyran-4-yl)ethyl)acetamide], for which the concentration for half-maximal inhibition (IC50) in experiment [1] is 0.06 µM; in experiment [2] it was 0.38 µM.
`CN(CCC1CCOCC1)C(=O)[C@@H](S[C@@H]1O[C@H](CO)[C@H](O)[C@H](n2cc(-c3cc(F)c(F)c(F)c3)nn2)[C@H]1O)C1(O)CCOCC1` [Example 2.41.216S., (S)-2-(((2S,3R,4S,5R,6R)-3,5-Dihydroxy-6-(hydroxymethyl)-4-(4-(3,4,5-trifluorophenyl)-1H-1,2,3-triazol-1-yl)tetrahydro-2H-pyran-2-yl)thio)-2-(4-hydroxytetrahydro-2H-pyran-4-yl)-N-methyl-N-(2-(tetrahydro-2H-pyran-4-yl)ethyl)acetamide]: the half-maximal inhibitory concentration (IC50) was 0.02 µM in experiment [1] and 0.11 µM in experiment [2].
With `CN(CCC1CC1)C(=O)C(S[C@@H]1O[C@H](CO)[C@H](O)[C@H](n2cc(-c3cc(F)c(F)c(F)c3)nn2)[C@H]1O)C1(O)CCOCC1` (stereo partly drawn) [Example 2.41.217., N-(2-Cyclopropylethyl)-2-(((2S,3R,4S,5R,6R)-3,5-dihydroxy-6-(hydroxymethyl)-4-(4-(3,4,5-trifluorophenyl)-1H-1,2,3-triazol-1-yl)tetrahydro-2H-pyran-2-yl)thio)-2-(4-hydroxytetrahydro-2H-pyran-4-yl)-N-methylacetamide], the IC50 in experiment [1] turned out to be 0.06 µM; in experiment [2], 0.22 µM.
On to `CN(CC1CC1)C(=O)C(S[C@@H]1O[C@H](CO)[C@H](O)[C@H](n2cc(-c3cc(F)c(F)c(F)c3)nn2)[C@H]1O)C1(O)CCOCC1` (stereo partly drawn) [Example 2.41.218., N-(Cyclopropylmethyl)-2-(((2S,3R,4S,5R,6R)-3,5-dihydroxy-6-(hydroxymethyl)-4-(4-(3,4,5-trifluorophenyl)-1H-1,2,3-triazol-1-yl)tetrahydro-2H-pyran-2-yl)thio)-2-(4-hydroxytetrahydro-2H-pyran-4-yl)-N-methylacetamide], for which the half-maximal inhibitory concentration (IC50) turned out to be 0.8 µM in experiment [1] and 0.19 µM in experiment [2].
`CN(CC1CC1)C(=O)[C@H](S[C@@H]1O[C@H](CO)[C@H](O)[C@H](n2cc(-c3cc(F)c(F)c(F)c3)nn2)[C@H]1O)C1(O)CCOCC1` [Example 2.41.218R., (R)-N-(Cyclopropylmethyl)-2-(((2S,3R,4S,5R,6R)-3,5-dihydroxy-6-(hydroxymethyl)-4-(4-(3,4,5-trifluorophenyl)-1H-1,2,3-triazol-1-yl)tetrahydro-2H-pyran-2-yl)thio)-2-(4-hydroxytetrahydro-2H-pyran-4-yl)-N-methylacetamide]: the values for the IC50 in experiment [1] and in experiment [2] were 2.25 µM and 19 µM, respectively.
On to `CN(CC1CC1)C(=O)[C@@H](S[C@@H]1O[C@H](CO)[C@H](O)[C@H](n2cc(-c3cc(F)c(F)c(F)c3)nn2)[C@H]1O)C1(O)CCOCC1` [Example 2.41.218S., (S)-N-(Cyclopropylmethyl)-2-(((2S,3R,4S,5R,6R)-3,5-dihydroxy-6-(hydroxymethyl)-4-(4-(3,4,5-trifluorophenyl)-1H-1,2,3-triazol-1-yl)tetrahydro-2H-pyran-2-yl)thio)-2-(4-hydroxytetrahydro-2H-pyran-4-yl)-N-methylacetamide], for which the figures for the concentration for half-maximal inhibition (IC50) in experiment [1] and in experiment [2] were 0.02 µM and 0.05 µM, respectively.

Values taken from patent US12410208B2, “(2-acetamidyl)thio-beta-D-galactopyranoside derivatives” (Idorsia Pharmaceuticals Ltd, priority 2020, dated 2025).
